{"source": "patent US9844546B2", "about": "“Antibody against human HIF hydroxylase” (OXFORD UNIVERSITY INNOVATION LIMITED, priority 2001, dated 2017)", "key": {"C. elegans": {"test_system": "C. elegans", "assay": "Immunoblot of ceHIF (HIF-1) in extracts of treated worms", "assay_type": "in vivo", "conditions": "200 μM in liquid media, 6 or 16 hrs", "description": "Immunoblots of ceHIF levels in extracts of c. elegans were carried out to monitor regulation by hypoxia and iron chelation. Firstly, the oxygen dependence of protein induction was analysed. Worms were grown on plates in bell jars flushed with air (N), or with oxygen/balance nitrogen having an oxygen concentration of 5%, 1%, 0.5% or 0.1% for 18 hrs. A graded increase in protein level was seen as the oxygen level was reduced below 5% with the highest level of induction at 0.5 and 0.1% oxygen concentration. The time course of protein induction was then studied. Worms were grown in bell jars flushed with a 0.1% oxygen/balance nitrogen mixture for 0, 4, 8, 16 or 24 hrs before preparation of extracts. […] The time course of protein decay on re-oxygenation was then assessed. Worms were grown in bell jars flushed with air (N) or a 0.1% oxygen/balance nitrogen mixture. Extracts were made either immediately, or after 4 and 8 minutes of re-oxygenation. Decay of ceHIF protein was very rapid on re-oxygenation. […] A time course RNAse protection assay showing cehif mRNA levels in worms exposed to 0.1% oxygen/balance nitrogen for 0, 4, 8, 16 and 24 hrs was carried out. No induction of ceHIF mRNA by hypoxia was seen. […] Induction by iron chelation was also studied in C. elegans. […]"}, "HIF-α/pVHL interaction": {"test_system": "HIF-α/pVHL interaction", "assay": "Interaction of HIF-1α and pVHL.HA reticulocyte IVTTs, anti-HA co-immunoprecipitation", "assay_type": "biochemical, human", "conditions": "100 μM added to the HIF-1α IVTT", "description": "^35S-Methionine labelled […] subunits and pVHL.HA were produced separately by IVTT (in vitro transcription and translation) in reticulocyte lysates. IVTTs were performed under different conditions, mixed, and assayed for interaction by anti-HA co-immunoprecipitation. These in vitro assays allowed analysis of the HIFα/pVHL interaction using the recombinant proteins.\nLabelled HIF-1α and pVHL.HA were generated separately in reticulocyte lysates (IVTT), in the presence or absence of Co (II), desferrioxamine, or Fe(II). Lysates were mixed in various combinations, and interactions assayed by anti-HA immunoprecipitation.\n• 1. G. L. Semenza, Genes Dev 14, 1983-91. (2000). • 2. N. V. Iyer, et al., Genes Dev. 12, 149-162 (1997). • 3. E. Maltepe, J. V. Schmidt, D. Baunoch, C. A. Bradfield, M. C. Simon, Nature 386, 403-407 (1997). • 4. G. L. Wang, B.-H. Jiang, E. A. Rue, G. L. Semenza, Proc. Natl. Acad. Sci. USA 92, 5510-5514 (1995). • 5. S. Salceda, J. Caro, J. Biol. Chem. 272, 22642-22647 (1997). • 6. L. E. Huang, J. Gu, M. Schau, H. F. Bunn, Proc. Natl. Acad. Sci. USA 95, 7987-7992 (1998). • 7. M. S. Wiesener, et al., Blood 92, 2260-2268 (1998). • 8. P. H. Maxwell, et al., Nature 399, 271-275 (1999). • 9. K. Iwai, et al., Proc. Natl. Acad. Sci. USA 96, 12436-12441 (1999). • 10. J. Lisztwan, G. Imbert, C. Wirbelauer, M. Gstaiger, W. Krek, Genes Dev 13, 1822-33 (1999). • 11. M. E. Cockman, et al., J Biol Chem (2000). • 12. M. Ohh, et al., Nat Cell Biol 2, 423-7. (2000). • 13. T. Kamura, et al., Proc Natl Acad Sci USA 97, 10430-5. (2000). • 14. K. Tanimoto, Y. Makino, T. Pereira, L. Poellinger, Embo J 19, 4298-309. (2000). • 15. M. A. Goldberg, S. P. Dunning, H. F. Bunn, Science 242, 1412-1415 (1988). • 16. G. L. Wang, G. L. Semenza, Blood 82, 3610-3615 (1993). • 17. G. L. Semenza, Cell 98, 281-284 (1999). • 18. Hypoxia (<0.1% oxygen) was obtained in a workstation with O2, CO2 and temperature control (Ruskinn Technologies, Leeds, UK). For hypoxic harvest, buffers were preincubated in the chamber overnight. […]"}, "EGLN-2 and EGLN-3": {"test_system": "EGLN-2 and EGLN-3", "assay": "Modification and pVHL binding assay with reticulocyte lysate programmed with EGLN-2 or EGLN-3", "assay_type": "biochemical, human", "conditions": "desferrioxamine 200 μM, cobaltous chloride 200 μM", "description": "Protein containing HIF-1 sequence (amino acids 549-582) was generated in a reticulocyte in vitro transcription translation reaction in the presence of 100 micromolar desferrioxamine, retrieved and then exposed to […] translates containing the putative enzymes as described above. These proteins contain the critical proline (564) which can be modified by hydroxylation and which enables recognition by von Hippel Lindau tumour suppressor protein (pVHL).\nThe modification of the HIF-1 sequence was assayed by the binding of the HIF-1 to radiolabelled pVHL, generated by in vitro transcription and translation of a pcDNA3 vector containing the human wild type pVHL open reading frame in a rabbit reticulocyte lysate in the presence of ^35S-methionine.\nModification and pVHL binding assays were performed as described above. Rabbit reticulocyte lysate was programmed with pcDNA3 based plasmids containing no insert, an insert encoding the full open reading frame of the human homologue of C. elegans Egl-9 known as EGLN-2, or an insert encoding the full open reading frame of the human homologue known as EGLN-3. Modification was performed in the absence of additives, in the presence of oxalylglycine, oxalylglycine plus 2-oxoglutarate, 200 μM desferrioxamine or 200 μM cobaltous chloride."}, "VHL-1": {"target": "T1, VHL-1 (Caenorhabditis elegans, UniProt Q19213)", "T1 construct": "made in house; host or cells: TNT rabbit reticulocyte lysate, IVTT", "T1 sequence (Q19213 1-174)": "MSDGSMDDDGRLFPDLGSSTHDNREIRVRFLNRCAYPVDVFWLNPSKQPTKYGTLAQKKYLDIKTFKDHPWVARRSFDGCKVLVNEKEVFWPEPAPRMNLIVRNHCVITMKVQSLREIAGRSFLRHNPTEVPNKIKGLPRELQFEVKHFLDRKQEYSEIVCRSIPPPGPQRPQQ", "assay": "Peptide blocking of HIF-1 capture by HA.VHL-1 and capture of native VHL-1 by biotinylated peptides", "assay_type": "binding, C. elegans", "conditions": "for blocking of capture of pretreated HIF-1 by HA.VHL-1: peptide 1 μM", "description": "For peptide blocking experiments peptides (final conc. 1 μM) were pre-incubated with VHL-1 for 15 min before addition to the interaction.\nTo test whether hydroxylation of the critical P621 residue in C. elegans HIF-1 could indeed promote binding to VHl-1, we synthesised N-terminal biotinylated peptides corresponding to residues 607-634 of C. elegans HIF-1 that contained either a proline (B28Pro) or a (2S, 4R)-trans-hydroxyproline residue (B28Hyp) at position 621.\nFurthermore. […] Finally, to test the importance of prolyl hydroxylation in regulating C. elegans HIF-1 in vivo we exposed worms to the cell-penetrating prolyl hydroxylase inhibitor, dimethyloxalylglycine."}}, "note": "Where no end group is shown, it is not given here. [ ]: non-standard residue; d: D form. The star is where a group is joined. Biotin = O=C1N[C@H]2[C@H](CS[C@H]2CCCCC(=O)*)N1; Hyp = O=C(O)[C@@H]1C[C@@H](O)CN1", "data": [{"compound": "c1ccc(-c2ccccn2)nc1", "note": "[2′, 2′ dipyrridyl, reference compound]", "values": [{"measurement": "ceHIF protein level", "setting": "C. elegans", "value": "striking Induction of ceHIF"}]}, {"compound": "CC(=O)N(O)CCCCCNC(=O)CCC(=O)N(O)CCCCCNC(=O)CCC(=O)N(O)CCCCCN", "note": "[desferrioxamine]", "values": [{"measurement": "capture of HIF-1α by pVHL.HA", "setting": "HIF-α/pVHL interaction", "value": "greatly diminished capture"}, {"measurement": "Enzyme activity (modification of HIF-1 to VHL binding form)", "setting": "EGLN-2 and EGLN-3", "value": "diminished"}]}, {"compound": "B28Hyp: N-terminal biotinylated peptide, residues 607-634 of C. elegans HIF-1, (2S, 4R)-trans-hydroxyproline at position 621 (Biotin-DDLQWEEPDLSCLA[Hyp]FVDTYDMMQMDEG)", "values": [{"measurement": "blocking of capture of pretreated HIF-1 by HA.VHL-1", "setting": "VHL-1", "value": "blocked capture"}, {"measurement": "capture of native VHL-1 from worm extracts", "setting": "VHL-1; wild type but not vhl-1 mutant worms", "value": "captured immunodetectable native VHL-1"}]}, {"compound": "B28Pro: N-terminal biotinylated peptide, residues 607-634 of C. elegans HIF-1, proline at position 621 (Biotin-DDLQWEEPDLSCLAPFVDTYDMMQMDEG)", "values": [{"measurement": "blocking of capture of pretreated HIF-1 by HA.VHL-1", "setting": "VHL-1", "value": "not"}]}]}
